Results reported in ChEMBL document CHEMBL3885881, “DrugMatrix”.

Species on record: Rattus norvegicus
Assay: DrugMatrix - Regimen: Daily Repeat
Format: toxicity, organism-based, Sprague-Dawley
Set-up: regimen Daily Repeat, gender Male, age 6-8 weeks
Details: in vivo, po, route oral GAVAGE, vehicle 100 % WATER; for BASOPHIL / EOSINOPHIL / ERYTHROCYTE COUNT / HEMATOCRIT / HEMOGLOBIN / LEUKOCYTE COUNT / LYMPHOCYTE / MEAN CORPUSCULAR HEMOGLOBIN / MEAN CORPUSCULAR HEMOGLOBIN CONCENTRATION / MEAN CORPUSCULAR VOLUME / MONOCYTE / NEUTROPHIL / PLATELET COUNT: tissue Blood; for ALANINE AMINOTRANSFERASE / ALBUMIN / ALKALINE PHOSPHATASE / ASPARTATE AMINOTRANSFERASE / BLOOD UREA NITROGEN / CHLORIDE / CHOLESTEROL / CREATINE PHOSPHOKINASE / CREATININE / GLUCOSE / PHOSPHORUS / POTASSIUM / SODIUM / TOTAL BILIRUBIN / TOTAL PROTEIN: tissue Plasma
[1] = 0 mg/kg, 72 h, dose level Control, time 3 day
[2] = 0 mg/kg, 120 h, dose level Control, time 5 day
[3] = 10 mg/kg, 72 h, dose level Low, time 3 day
[4] = 10 mg/kg, 120 h, dose level Low, time 5 day
[5] = 1500 mg/kg, 72 h, dose level High, time 3 day
[6] = 1500 mg/kg, 120 h, dose level High, time 5 day

O=C(O)c1cc(=O)c2c(OCC(O)COc3cccc4oc(C(=O)O)cc(=O)c34)cccc2o1 [CROMOLYN]
BASOPHIL [1]: 0% | EOSINOPHIL [1]: 0.33% | ERYTHROCYTE COUNT [1]: 5.88 x10E6/uL | HEMATOCRIT [1]: 36.47% | HEMOGLOBIN [1]: 14.2 G/DL | LEUKOCYTE COUNT [1]: 9.28 x10E3/uL | LYMPHOCYTE [1]: 82.33% | MEAN CORPUSCULAR HEMOGLOBIN [1]: 24.2 pg | MEAN CORPUSCULAR HEMOGLOBIN CONCENTRATION [1]: 38.97 G/DL | MEAN CORPUSCULAR VOLUME [1]: 62.12 fL | MONOCYTE [1]: 2.33% | NEUTROPHIL [1]: 15% | PLATELET COUNT [1]: 1114 x10E3/uL | ALANINE AMINOTRANSFERASE [1]: 41.17 u/L | ALBUMIN [1]: 3.95 G/DL | ALKALINE PHOSPHATASE [1]: 382.5 u/L | ASPARTATE AMINOTRANSFERASE [1]: 67.33 u/L | BLOOD UREA NITROGEN [1]: 15.5 mg/dL | CHLORIDE [1]: 106.33 MEQ/L | CHOLESTEROL [1]: 77.67 mg/dL | CREATINE PHOSPHOKINASE [1]: 123.33 u/L | CREATININE [1]: 0.62 mg/dL | GLUCOSE [1]: 185.67 mg/dL | PHOSPHORUS [1]: 10.2 mg/dL | POTASSIUM [1]: 6.72 MEQ/L | SODIUM [1]: 149.67 MEQ/L | TOTAL BILIRUBIN [1]: 0.97 mg/dL | TOTAL PROTEIN [1]: 6.58 G/DL | BASOPHIL [2]: 0% | EOSINOPHIL [2]: 0% | ERYTHROCYTE COUNT [2]: 5.99 x10E6/uL | HEMATOCRIT [2]: 36.88% | HEMOGLOBIN [2]: 14.77 G/DL | LEUKOCYTE COUNT [2]: 11.35 x10E3/uL | LYMPHOCYTE [2]: 85.5% | MEAN CORPUSCULAR HEMOGLOBIN [2]: 24.7 pg | MEAN CORPUSCULAR HEMOGLOBIN CONCENTRATION [2]: 40.07 G/DL | MEAN CORPUSCULAR VOLUME [2]: 61.58 fL | MONOCYTE [2]: 1.83% | NEUTROPHIL [2]: 12.67% | PLATELET COUNT [2]: 979.67 x10E3/uL | ALANINE AMINOTRANSFERASE [2]: 36.5 u/L | ALBUMIN [2]: 3.63 G/DL | ALKALINE PHOSPHATASE [2]: 303.5 u/L | ASPARTATE AMINOTRANSFERASE [2]: 61 u/L | BLOOD UREA NITROGEN [2]: 16.5 mg/dL | CHLORIDE [2]: 106.17 MEQ/L | CHOLESTEROL [2]: 60.5 mg/dL | CREATINE PHOSPHOKINASE [2]: 154.83 u/L | CREATININE [2]: 0.6 mg/dL | GLUCOSE [2]: 201 mg/dL | PHOSPHORUS [2]: 10.1 mg/dL | POTASSIUM [2]: 6.85 MEQ/L | SODIUM [2]: 148.17 MEQ/L | TOTAL BILIRUBIN [2]: 0.58 mg/dL | TOTAL PROTEIN [2]: 5.9 G/DL | BASOPHIL [3]: 0% | EOSINOPHIL [3]: 0% | ERYTHROCYTE COUNT [3]: 5.62 x10E6/uL | HEMATOCRIT [3]: 34.93% | HEMOGLOBIN [3]: 13.6 G/DL | LEUKOCYTE COUNT [3]: 10.7 x10E3/uL | LYMPHOCYTE [3]: 79% | MEAN CORPUSCULAR HEMOGLOBIN [3]: 24.23 pg | MEAN CORPUSCULAR HEMOGLOBIN CONCENTRATION [3]: 38.93 G/DL | MEAN CORPUSCULAR VOLUME [3]: 62.2 fL | MONOCYTE [3]: 2.33% | NEUTROPHIL [3]: 18.67% | PLATELET COUNT [3]: 1007 x10E3/uL | ALANINE AMINOTRANSFERASE [3]: 38.67 u/L | ALBUMIN [3]: 3.87 G/DL | ALKALINE PHOSPHATASE [3]: 381.33 u/L | ASPARTATE AMINOTRANSFERASE [3]: 60.67 u/L | BLOOD UREA NITROGEN [3]: 13 mg/dL | CHLORIDE [3]: 107.33 MEQ/L | CHOLESTEROL [3]: 71.67 mg/dL | CREATINE PHOSPHOKINASE [3]: 119.67 u/L | CREATININE [3]: 0.6 mg/dL | GLUCOSE [3]: 182 mg/dL | PHOSPHORUS [3]: 10.4 mg/dL | POTASSIUM [3]: 6.6 MEQ/L | SODIUM [3]: 150.33 MEQ/L | TOTAL BILIRUBIN [3]: 0.8 mg/dL | TOTAL PROTEIN [3]: 6.33 G/DL | BASOPHIL [4]: 0% | EOSINOPHIL [4]: 0.33% | ERYTHROCYTE COUNT [4]: 5.82 x10E6/uL | HEMATOCRIT [4]: 35.37% | HEMOGLOBIN [4]: 14.43 G/DL | LEUKOCYTE COUNT [4]: 10.43 x10E3/uL | LYMPHOCYTE [4]: 85% | MEAN CORPUSCULAR HEMOGLOBIN [4]: 24.83 pg | MEAN CORPUSCULAR HEMOGLOBIN CONCENTRATION [4]: 40.83 G/DL | MEAN CORPUSCULAR VOLUME [4]: 60.73 fL | MONOCYTE [4]: 2.33% | NEUTROPHIL [4]: 12.33% | PLATELET COUNT [4]: 932 x10E3/uL | ALANINE AMINOTRANSFERASE [4]: 38 u/L | ALBUMIN [4]: 3.73 G/DL | ALKALINE PHOSPHATASE [4]: 274 u/L | ASPARTATE AMINOTRANSFERASE [4]: 62.33 u/L | BLOOD UREA NITROGEN [4]: 13.33 mg/dL | CHLORIDE [4]: 109 MEQ/L | CHOLESTEROL [4]: 60.33 mg/dL | CREATINE PHOSPHOKINASE [4]: 101.67 u/L | CREATININE [4]: 0.73 mg/dL | GLUCOSE [4]: 167.33 mg/dL | PHOSPHORUS [4]: 9.73 mg/dL | POTASSIUM [4]: 6.7 MEQ/L | SODIUM [4]: 151.33 MEQ/L | TOTAL BILIRUBIN [4]: 0.67 mg/dL | TOTAL PROTEIN [4]: 5.87 G/DL | BASOPHIL [5]: 0% | EOSINOPHIL [5]: 0.33% | ERYTHROCYTE COUNT [5]: 5.31 x10E6/uL | HEMATOCRIT [5]: 33.07% | HEMOGLOBIN [5]: 13.3 G/DL | LEUKOCYTE COUNT [5]: 10.3 x10E3/uL | LYMPHOCYTE [5]: 79.67% | MEAN CORPUSCULAR HEMOGLOBIN [5]: 25.1 pg | MEAN CORPUSCULAR HEMOGLOBIN CONCENTRATION [5]: 40.3 G/DL | MEAN CORPUSCULAR VOLUME [5]: 62.23 fL | MONOCYTE [5]: 1% | NEUTROPHIL [5]: 18.67% | PLATELET COUNT [5]: 969.67 x10E3/uL | ALANINE AMINOTRANSFERASE [5]: 36 u/L | ALBUMIN [5]: 3.9 G/DL | ALKALINE PHOSPHATASE [5]: 383.5 u/L | ASPARTATE AMINOTRANSFERASE [5]: 60 u/L | BLOOD UREA NITROGEN [5]: 13 mg/dL | CHLORIDE [5]: 106 MEQ/L | CHOLESTEROL [5]: 72 mg/dL | CREATINE PHOSPHOKINASE [5]: 122 u/L | CREATININE [5]: 0.5 mg/dL | GLUCOSE [5]: 179 mg/dL | PHOSPHORUS [5]: 9.8 mg/dL | POTASSIUM [5]: 6.7 MEQ/L | SODIUM [5]: 150 MEQ/L | TOTAL BILIRUBIN [5]: 0.5 mg/dL | TOTAL PROTEIN [5]: 6.25 G/DL | BASOPHIL [6]: 0% | EOSINOPHIL [6]: 0% | ERYTHROCYTE COUNT [6]: 6.38 x10E6/uL | HEMATOCRIT [6]: 37.77% | HEMOGLOBIN [6]: 14.93 G/DL | LEUKOCYTE COUNT [6]: 13.03 x10E3/uL | LYMPHOCYTE [6]: 83.33% | MEAN CORPUSCULAR HEMOGLOBIN [6]: 23.43 pg | MEAN CORPUSCULAR HEMOGLOBIN CONCENTRATION [6]: 39.57 G/DL | MEAN CORPUSCULAR VOLUME [6]: 59.27 fL | MONOCYTE [6]: 0.67% | NEUTROPHIL [6]: 16% | PLATELET COUNT [6]: 1070.67 x10E3/uL | ALANINE AMINOTRANSFERASE [6]: 36.33 u/L | ALBUMIN [6]: 3.77 G/DL | ALKALINE PHOSPHATASE [6]: 352 u/L | ASPARTATE AMINOTRANSFERASE [6]: 63 u/L | BLOOD UREA NITROGEN [6]: 15.33 mg/dL | CHLORIDE [6]: 106 MEQ/L | CHOLESTEROL [6]: 50.67 mg/dL | CREATINE PHOSPHOKINASE [6]: 125.33 u/L | CREATININE [6]: 0.63 mg/dL | GLUCOSE [6]: 177.67 mg/dL | PHOSPHORUS [6]: 10.5 mg/dL | POTASSIUM [6]: 7.1 MEQ/L | SODIUM [6]: 150 MEQ/L | TOTAL BILIRUBIN [6]: 0.57 mg/dL | TOTAL PROTEIN [6]: 6.13 G/DL
